Data as given in patent CN117567270A, “一种醇胺-壬二酸超分子离子盐及其制备和应用” (Jiangnan University, priority 2023, dated 2024).

Experiments:
[1] = test system: Pseudomonas aeruginosa [铜绿假单胞菌]; experiment: Antibacterial challenge test (single inoculation, 28 d), Pseudomonas aeruginosa; format: cell-based; details: for increase of bacterial count: 14~28 d; for sterilising effect (compared with control group): 7 d, control group: azelaic acid neutralised to pH 7.0
[2] = test system: Staphylococcus aureus [金黄色葡萄球菌]; experiment: Antibacterial challenge test (single inoculation, 28 d), Staphylococcus aureus; format: cell-based; details: 14~28 d
[3] = test system: human skin stratum corneum [人体皮肤角质层]; experiment: Moisturising performance test (skin water content by capacitance method); format: in vivo; details: toner with azelaic acid mass fraction 0.2%; for water content of human skin: 1 h after application; for moisturising ability (compared with control group): long time; for water loss of skin (compared with control group): longer time; for water replenishing ability (compared with control group): short time
[4] = test system: Escherichia coli, Pseudomonas aeruginosa and Staphylococcus aureus [大肠埃希氏菌、铜绿假单胞菌和金黄色葡萄球菌]; experiment: Antibacterial challenge test, overall result; format: cell-based; details: for antibacterial challenge test passed: criterion: log decline at 14 d not less than 2.0 and no rise 14~28 d
[5] = background statement; cited from earlier work
[6] = test system: Escherichia coli [大肠埃希氏菌]; experiment: Antibacterial challenge test (single inoculation, 28 d), Escherichia coli; format: cell-based; details: for increase of bacterial count: 14~28 d; for sterilising effect (compared with control group): 7 d, control group: azelaic acid neutralised to pH 7.0
[7] = High/low temperature cycling of the salt and its water dilutions; format: physicochemical; details: 15 cycles -5~40℃; undiluted and diluted 1, 5, 10, 20, 50 times with water
[8] = Storage stability of the salt and its water dilutions; format: physicochemical; details: 3 months, undiluted and diluted 1, 5, 10, 20, 50 times with water

Row | Compound | increase of bacterial count [1] | increase of bacterial count [2] | water content of human skin [3] | antibacterial challenge test passed [4] | solubility in water [5] | increase of bacterial count [6] | sterilising effect (compared with control group) [1] | moisturising ability (compared with control group) [3] | water loss of skin (compared with control group) [3] | water replenishing ability (compared with control group) [3] | short-term antibacterial effect compared with azelaic acid [4] | sterilising effect (compared with control group) [6] | precipitation of insolubles and colour change [7] | precipitation of insolubles and colour change ([8]; 45℃ oven) | precipitation of insolubles and colour change ([8]; room temperature, natural light)
1 | O=C(O)CCCCCCCC(=O)O [壬二酸, reference compound] | 不增加 | 不增加 | 明显上升 | 通过抗菌挑战测试 | 很低 | 不增加 |  |  |  |  |  |  |  |  | 
2 | O=C(O)CCCCCCCC(=O)O.OCCN(CCO)CCO.OCCN(CCO)CCO [实施例1, 三乙醇胺-壬二酸超分子离子盐] | 不增加 | 不增加 | 明显上升 |  |  | 不增加 | 更加优异 | 更加优异 | 较为缓慢 | 更加优异 | 优于壬二酸 | 更加优异 |  |  | 
3 | NCC(O)CO.NCC(O)CO.O=C(O)CCCCCCCC(=O)O [实施例2, 氨基丙二醇-壬二酸超分子离子盐] | 不增加 | 不增加 | 明显上升 | 通过抗菌挑战测试 |  | 不增加 | 更加优异 | 更加优异 | 较为缓慢 | 更加优异 | 优于壬二酸 | 更加优异 | 无不溶物析出且无颜色变化 | 无不溶物析出且无颜色变化 | 无不溶物析出且无颜色变化
4 | CC(C)(N)CO.O=C(O)CCCCCCCC(=O)O [实施例3, 氨甲基丙醇-壬二酸超分子离子盐] | 不增加 | 不增加 | 明显上升 | 通过抗菌挑战测试 |  | 不增加 | 更加优异 | 更加优异 | 较为缓慢 | 更加优异 | 优于壬二酸 | 更加优异 |  |  | 
